In patent US8039501B2, “Synephrine derivatives useful as anti-inflammatory agents” (Universiteit Gent, priority 2005, dated 2011):
Residues, ends and D or L forms follow the SMILES beside them. *: point of attachment. Cbz = O=C(OCc1ccccc1)*

Assays:
L363 cell line = experiment: MTT test, cell viability of L363 cells; assay type: cell-based, human; conditions: 10% FCS, FIG. 3B; for Cell killing of L363 cells: 10^−5 M; for cytotoxicity at 100 µM: Homo sapiens, L-363, read-out: Block of L363 cell viability
Method: (§1) The MTT test is a standard assay addressing cell toxicity of a compound. It is based on the principle that after 3-4 hours of cell incubation with MTT (3-(4,5-dimethylthiazole-2-yl)-2,5-diphenyl tetrazolium bromide) so-called purple formazan crystals develop in living and early apoptotic cells. Dead cells don't produce formazan crystals.
(§2) Different cell lines were tested. Unless indicated differently, A549 human lung epithelial cells (derived from lung carcinoma) and L929sA murine fibroblast cells were cultured in DMEM with 10% FCS, 100 U/ml penicillin and 100 μg/ml streptomycin. Unless indicated differently, the human multiple myeloma cell lines L363, U266 and MM1.S were cultured in RPMI 1640 with Glutamax-I, supplemented with 10% FCS, 100 U/ml penicillin and 100 μg/ml streptomycin. Cells were seeded at 5000 cells/well (for adherent A549 and L929sA cells) or at 10000 cells/well (for the multiple myeloma lines in suspension) in 96 well plates. Cells were incubated in the presence of the respective synephrine compounds or vehicle (EtOH; for control test) in a final volume of 0.2 ml for 24 or 48 hours at 37° C. Subsequently, 20 μl of MTT solution (5 mg/ml in phosphate-buffered saline) was added to each well. After 4 hours incubation at 37° C., 80 μl of the extraction buffer (10% SDS, 0.01 M HCl) was added. After overnight incubation at room temperature, the optical densities at 590 nm were measured. Results are illustrated in FIGS. 2 to 6 and are expressed as percentage of viable cells as compared to vehicle-treated controls.
(§3) The MTT test was further extended to include alternative synephrine derivatives and a range of multiple myeloma cell lines for which the results are illustrated by FIGS. 3A, 3B and 4A. Human multiple myeloma cell lines L363, U266 and MM1.S were cultured in RPMI 1640 with Glutamax-I, supplemented with 10% FCS, 100 U/ml penicillin and 100 μg/ml streptomycin. Cells were seeded at 10000 cells/well in 96 well plates. Cells were incubated in the presence of test compounds or vehicle in a final volume of 0.2 ml for 24 or 48 hours at 37° C. The test compounds included in the test were the synephrine derivatives CpdA, Naphth, Benz and Isobut, and DEX as a comparative example. Subsequently, 20 μl of MTT solution (5 mg/ml in phosphate-buffered saline) was added to each well. After 4 hours incubation at 37° C., 80 μl of the extraction buffer (10% SDS, 0.01 M HCl) was added. After 48 hours incubation at room temperature, the optical densities at 590 nm were measured. Results are expressed as percentage of viable cells as compared to vehicle-treated controls.

[1] = MTT test, cell viability of L929sA fibroblasts; assay type: cell-based, murine; conditions: mouse, L929sA fibroblast cells; 10^−5 M; within 48 hours; FIG. 5B; read-out: Block of L929sA cell viability
Method: as §1, §2
(§4) In a further MTT test, the activity of the synephrine derivatives on the inhibition of cell viability of non-immune cells was measured. […] Tests were performed for 24 hours and for 48 hours. The results are illustrated by FIGS. 5A and 5B for L929 cells, and by FIGS. 6A and 6B for A549 cells. It was observed that CpdA at 10^−5 M blocked cell viability of L929sA and A549 for not more than 10%.

[2] = tested on: pE-selectin-Luc (E-selectin promoter); experiment: pE-selectin-Luc reporter gene assay in TNF-induced L929sA cells; assay type: cell-based, mouse; conditions: indicated concentrations, from -2 hours for 8 hours; TNF 2000 IU/ml 6 hours; FIG. 1
Source text: L929sA mouse fibroblast cells were stably transfected with pE-selectine-Luc (also referred to as pELAM-luc) by the calcium phosphate precipitation procedure described by De Bosscher et al. in Proc. Natl. Acad. Sci. USA (1997) 94, 13504-13509. The co-transfected plasmid pPGKβGeobpA, conferring resistance to G418 and expressing constitutive β-galactosidase enzymatic activity, was used as an internal control. L929sA cells were transiently transfected by the DEAE-dextran transfection method described by De Bosscher et al. (cited supra).
Recombinant murine tumor necrosis factor (TNF) was produced according to a method standard in the art. Dexamethasone (hereinafter abbreviated as DEX) commercially available from Sigma, and 2-(4-acetoxyphenyl)-2-chloro-N-methyl-ethylammonium chloride (hereinafter abbreviated as compound A) was synthesized according to Louw et al. in Biochemical Pharmacology (1997) 53, 189-197). A stock solution was prepared in ethanol (for DEX) or DMSO (for both comparative compound A and for the compound of example 6 according to this invention, i.e. 1-[4-(benzoyloxy)phenyl]-2-[(tert-butoxy-carbonyl)-methylamino]ethyl-1H-imidazole-1-carboxylate), aliquoted and stored at −70° C.
Induction was performed in triplicate for each independent experiment, which was carried out at least twice. Induction with DEX, compound A, and for the compound of example 6 according to this invention at 1 μM, 10 μM or respectively any other indicated concentration were performed at −2 hours for a total of 8 hours, while TNF (2000 IU/ml) was added at time point zero and left on the cells for 6 hours. After induction, cells were lysed with a lysis buffer (commercially available from Tropix, Bedford, Massachussets) and samples were assayed according to the manufacturer's instructions (Promega Biotech).
In order to investigate whether the inhibitory effect of compound A or the compound of example 6 according to this invention is directed at the transcriptional level of NF-κB-driven genes, the NF-κB-dependent physiological promoter construct, pE-selectin-Luc stably integrated into L929sA cells, was tested. […] DEX-mediated and compound A-mediated inhibition of TNF-induced gene expression were used as controls (FIG. 1). In the appended figures, NI stands for non-induced (either in presence of solvent controls like ethanol or DMSO).

MM1.S cell line = experiment: MTT test, cell viability of MM1.S cells; assay type: cell-based, human; conditions: 10% FCS, FIG. 4A
Method: as §1, §2, §3

[3] = tested on: multiple myeloma cells U266; experiment: MTT test, cell viability of U266 cells; assay type: cell-based, human; conditions: 10^−4 M, 10% FCS, FIG. 3A; for cytotoxicity at 100 µM: Homo sapiens, U-266, read-out: Block of U266 cell viability / cell killing
Method: as §1, §2, §3

[4] = tested on: A549 human lung epithelial cells; experiment: MTT test, cell viability of A549 cells; assay type: cell-based
Method: as §1, §2, §4

[5] = MTT test, cell viability of A549 cells; assay type: cell-based, human; conditions: human, A549 lung epithelial (carcinoma) cells; 10^−5 M; 48 hours; FIG. 6B; read-out: Block of A549 cell viability
Method: as §1, §2, §4

B-CLL cells = experiment: Annexin V/PI flow cytometric analysis of apoptosis in ex-vivo cultured B-CLL cells; assay type: cell-based, human; conditions: 24 hours
Method: Blood samples were obtained from B-CLL patients after informed consent according to institutional guidelines. CLL lymphocytes were isolated using Lymphoprep (Nycomed Pharma, Denmark) and re-suspended at a final concentration of 10−30×10^6 cells/ml in RPMI 1640 medium, supplemented with 10% heat-inactivated fetal bovine serum (FBS) (Greiner Bio-one, Wemmel, Belgium), 100 IU/ml penicillin, 100 μg/ml streptomycin, and 0.56 μg/mL fungizone (Gibco BRL, Merelbeke, Belgium). B-CLL cells were cultured in Dulbecco's Modified Eagle Medium (DMEM) (Gibco, Invitrogen Inc.) containing 10% FBS (Gibco, Invitrogen Inc.). For flow cytometric analysis of apoptosis, B-CLL cells were treated with the different compounds for 24 hours, 3×10^5 cells were removed from the culture medium, washed twice with cold PBS, and double stained with annexin V-fluorescein isothiocyanate (FITC) and propidium iodide (PI; Beckman Coulter, Miami, Fla.) in Annexin binding buffer, followed by analysis on a FC500PTM (Beckman Coulter, Nyon, Switzerland) flow cytometer. Flow cytometric data were analyzed using Cytomixs RXP software (Beckman Coulter, Nyon, Switzerland). To avoid non-specific fluorescence from dead cells, live cells were gated using forward and side scatter.
One of the early signs of apoptosis is the translocation of the membrane phospholipid phosphatidylserine from the cytoplasmic interface to the extracellular surface. Annexin V has a high affinity for the phospatidylserine-containing phospholipid bilayers. […] As the plasma membrane becomes increasingly permeable during the later stages of apoptosis, the DNA-binding dye PI can readily move across the cell membrane and bind to cellular DNA, providing a means to detect the loss of membrane integrity through mechanisms including necrosis. Three different cell populations can be observed in cells double-stained with AnnV-FITC and PI. […] Cells that stain with Ann V only are early apoptotic cells. And cells that stain with both AnnV and PI are late apoptotic/necrotic cells. The percentage of AnnV-positive B-CLL cells in the lymphocyte gate were measured by FACS and results were expressed as % apoptotic cells, i.e. sum of early apoptotic (AnnV+, PI−), and late apoptotic/dead cells (AnnV+, PI+). The percent of living cells was normalized to 100% living cells incubated in control medium with 0.1% EtOH. All measurements were made in duplicate and averaged.

MM1.S cell lines = experiment: Annexin V/PI assay in MM1.S cells; assay type: cell-based, human; conditions: positive control, FIG. 13
Method: 1. […] Procedure: • Human multiple myeloma cell lines L363, U266, MM1.S and MMR.1 are cultured in RPMI 1640 with Glutamax-I, supplemented with 10% FCS, 100 U/ml penicillin and 100 μg/ml streptomycin. Cells are counted and resuspended in fresh medium at a concentration of 1×10^6/ml. Next, 1 ml of cell suspension is transferred to 5 ml culture tubes in the presence of test compounds (DEX, CpdA, CpdA analogues: 10^−7 to 10^−4 M) or vehicle (EtOH) and incubated for 24 or 48 hours at 37° C. • Double-staining of the cells with PI and annexin V is performed according to the instructions of the Annexin V kit (BD Biosciences). • Double-stained cells are analyzed by flow cytometry. […] Graphs are represented as the ratio of early apoptotic cells versus late apoptotic cells (a) or as total % of living cells (b).

CN(CC(OC(=O)n1ccnc1)c1ccc(OC(=O)c2ccccc2)cc1)C(=O)OC(C)(C)C (centres unmarked) [Benz, 1-[4-(benzoyloxy)phenyl]-2-[(tert-butoxycarbonyl)-methylamino]ethyl-1H-imidazole-1-carboxylate]
Cell killing of L363 cells (L363 cell line): 40%
cytotoxicity at 100 µM (L363 cell line; 10^−4 M): 90%
cytotoxicity at 48 h [1]: ≤ 20%
Inhibition of TNF-induced gene expression (E-selectin gene induction) [2]: effectively inhibit TNF-induced E-selectin gene induction
Inhibition of MM1.S cell viability (MM1.S cell line; 10^−5 M): block cell viability completely
cytotoxicity at 100 µM [3]: 90%
Block of A549 cell viability ([4]; 10^−5 M, 24 hours, FIG. 6A): not able to block cell viability
cytotoxicity at 48 h [5]: 10%

O=C(O)CCCc1ccc(N(CCCl)CCCl)cc1 [Chlorambucil]
% apoptotic cells, CLL patient 1 (B-CLL cells; 25 · 10^−7M): 51%
% apoptotic cells, CLL patient 2 (B-CLL cells; 25 · 10^−7M): 46%

Nc1nc(F)nc2c1ncn2[C@@H]1O[C@H](CO)[C@@H](O)[C@@H]1O [Fludarabine]
% apoptotic cells, CLL patient 1 (B-CLL cells; 5 · 10^−6M): 56%
% apoptotic cells, CLL patient 2 (B-CLL cells; 5 · 10^−6M): 63%

CC(C)C(=O)Oc1ccc(C(CN(C)C(=O)OC(C)(C)C)OC(=O)n2ccnc2)cc1 (centres unmarked) [Isobut, 1-[4-(isobutanoyloxy)phenyl]-2-[(tert-butoxycarbonyl)-methylamino]ethyl-1H-imidazole-1-carboxylate]
Cell killing of L363 cells (L363 cell line): 25%
cytotoxicity at 100 µM (L363 cell line; 10^−4 M): 80%
Inhibition of TNF-induced gene expression (E-selectin gene induction) [2]: effectively inhibit TNF-induced E-selectin gene induction
Inhibition of MM1.S cell viability (MM1.S cell line; 10^−5 M): block cell viability completely
cytotoxicity at 100 µM [3]: 80%

CC(C)C[C@@H](C=O)NC(=O)[C@H](CC(C)C)NC(=O)[C@H](CC(C)C)NC(=O)OCc1ccccc1 [MG132, reference compound] (Cbz-Leu-Leu-Leu-aldehyde)
Apoptosis (Annexin V/PI staining) (MM1.S cell lines): also mediates apoptosis

CN(CC(OC(=O)n1ccnc1)c1ccc(OC(=O)c2cccc3ccccc23)cc1)C(=O)OC(C)(C)C (centres unmarked) [Naphth, 1-[4-(1-naphthoyloxy)phenyl]-2-[(tert-butyloxycarbonyl)(methyl)amino]ethyl 1H-imida-zole-1-carboxylate]
Block of L363 cell viability (L363 cell line; 10^−4 M): 90%
Cell killing of L363 cells (L363 cell line): 40%
Inhibition of MM1.S cell viability (MM1.S cell line; 10^−4 M): almost completely
Inhibition of MM1.S cell viability (MM1.S cell line; 10^−5 M): about 35%
Block of U266 cell viability / cell killing [3]: 70%
Block of A549 cell viability ([4]; 10^−4 M, 48 hours, FIG. 6B): 20%
Block of A549 cell viability ([4]; 10^−5 M, 24 hours, FIG. 6A): about 10%
Block of A549 cell viability ([4]; 10^−5 M, 48 hours, FIG. 6B): not more than 20%

C[C@H]1C[C@@H]2[C@H]([C@@H](O)C[C@@]3(C)[C@H]2CC[C@]3(O)C(=O)COC(=O)CCC(=O)O)[C@@]2(C)C=CC(=O)C=C12 [Solumedrol]
% apoptotic cells, CLL patient 1 (B-CLL cells; 10^−7M): 60%
% apoptotic cells, CLL patient 2 (B-CLL cells; 10^−7M): 34%

CCCCCC(=O)Oc1ccc(C(O)CN(C)C(=O)OC(C)(C)C)cc1 (centres unmarked) [example 6, 4-{2-[(tert-butoxycarbonyl)(methyl)amino]-1-hydroxyethyl}phenyl hexanoate]
Inhibition of TNF-induced gene expression (E-selectin gene induction) [2]: observed in a dose-responsive manner
